Results taken from patent publication EP0394553A2, “Use of fluorine containing pyridone carboxylic acid derivatives for preparing a medicament for the treatment of HIV infections” (DAIICHI PHARMACEUTICAL CO., LTD., priority 1989, dated 1990).
Read-outs that look alike come from different tables or passages of the source.

Tested on: HIV (LAV 1)
Experiment: microbe, parasite or virus in culture
Conditions: for Viral antigen-positive cell percentage / Viable cell count: 10 mcg/ml; for viability at 1 µg/mL / viability at 2.5 µg/mL / viability at 5 µg/mL / viability at 10 µg/mL: Human immunodeficiency virus 1, CCRF-CEM
How it was run: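 CEM cells were infected with HIV LAV 1 at MOI 0.05 and cultured with test substance at 10, 5, 2.5 or 1 mcg/ml, with medium exchanged periodically up to 30 days. Viable cell count and percentage were measured by trypan blue, and antigen-positive cells by immunofluorescence with anti-HIV antiserum, at 4–30 days. Values are means of two wells.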

[1] = continuous addition, after 4 days
[2] = continuous addition, after 7 days
[3] = continuous addition, after 10 days
[4] = continuous addition, after 20 days
[5] = continuous addition, after 30 days

C[C@H]1COc2c(N3CCN(C)CC3)c(F)cc3c(=O)c(C(=O)O)cn1c23 [DR-3355, (-)-(S)-9-fluoro-2,3-dihydro-3-methyl-10-(4-methyl-1-piperazinyl)-7-oxo-7H-pyrido[1,2,3-de][1,4]benzoxazine-6-carboxylic acid hemihydrate]
Viral antigen-positive cell percentage (4-day addition, after 4 days): 88%
Viable cell count (4-day addition, after 7 days): 50 × 10⁴ cells/ml
Viral antigen-positive cell percentage (4-day addition, after 7 days): 57%
Viable cell count (4-day addition, after 10 days): 280 × 10⁴ cells/ml
Viral antigen-positive cell percentage (4-day addition, after 10 days): 31%
Viable cell count (4-day addition, after 20 days): 230 × 10⁴ cells/ml
Viral antigen-positive cell percentage (4-day addition, after 20 days): 19%
Viable cell count (4-day addition, after 30 days): 320 × 10⁴ cells/ml
Viral antigen-positive cell percentage (4-day addition, after 30 days): ≦1%
Viable cell count [1]: 160 × 10⁴ cells/ml
Viral antigen-positive cell percentage [1]: 89%
Viable cell count [2]: 43 × 10⁴ cells/ml
Viral antigen-positive cell percentage [2]: 55%
Viable cell count [3]: 220 × 10⁴ cells/ml
Viral antigen-positive cell percentage [3]: 31%
Viable cell count [4]: 260 × 10⁴ cells/ml
Viral antigen-positive cell percentage [4]: 21%
Viable cell count [5]: 260 × 10⁴ cells/ml
Viral antigen-positive cell percentage [5]: 4%
viability at 1 µg/mL (96 h, read-out: Viable cell percentage, 1 mcg/ml, 4-day addition, after 4 days): 95%
viability at 1 µg/mL (96 h, read-out: Viable cell percentage, 1 mcg/ml, continuous addition, after 4 days): 94%
viability at 2.5 µg/mL (96 h, read-out: Viable cell percentage, 2.5 mcg/ml, 4-day addition, after 4 days): 94%
viability at 2.5 µg/mL (96 h, read-out: Viable cell percentage, 2.5 mcg/ml, continuous addition, after 4 days): 94%
viability at 5 µg/mL (96 h, read-out: Viable cell percentage, 5 mcg/ml, 4-day addition, after 4 days): 91%
viability at 5 µg/mL (96 h, read-out: Viable cell percentage, 5 mcg/ml, continuous addition, after 4 days): 89%
viability at 10 µg/mL (96 h, read-out: Viable cell percentage, 10 mcg/ml, 4-day addition, after 4 days): 92%
viability at 10 µg/mL (96 h, read-out: Viable cell percentage, 10 mcg/ml, continuous addition, after 4 days): 91%
viability at 1 µg/mL (168 h, read-out: Viable cell percentage, 1 mcg/ml, continuous addition, after 7 days): 69%
viability at 2.5 µg/mL (168 h, read-out: Viable cell percentage, 2.5 mcg/ml, continuous addition, after 7 days): 68%
viability at 5 µg/mL (168 h, read-out: Viable cell percentage, 5 mcg/ml, continuous addition, after 7 days): 66%
viability at 10 µg/mL (168 h, read-out: Viable cell percentage, 10 mcg/ml, continuous addition, after 7 days): 75%
viability at 1 µg/mL (240 h, read-out: Viable cell percentage, 1 mcg/ml, continuous addition, after 10 days): 61%
viability at 2.5 µg/mL (240 h, read-out: Viable cell percentage, 2.5 mcg/ml, continuous addition, after 10 days): 94%
viability at 5 µg/mL (240 h, read-out: Viable cell percentage, 5 mcg/ml, continuous addition, after 10 days): 95%
viability at 10 µg/mL (240 h, read-out: Viable cell percentage, 10 mcg/ml, continuous addition, after 10 days): 92%
viability at 1 µg/mL (480 h, read-out: Viable cell percentage, 1 mcg/ml, continuous addition, after 20 days): 50%
viability at 2.5 µg/mL (480 h, read-out: Viable cell percentage, 2.5 mcg/ml, continuous addition, after 20 days): 95%
viability at 5 µg/mL (480 h, read-out: Viable cell percentage, 5 mcg/ml, continuous addition, after 20 days): 89%
viability at 10 µg/mL (480 h, read-out: Viable cell percentage, 10 mcg/ml, continuous addition, after 20 days): 87%
viability at 1 µg/mL (read-out: Viable cell percentage, 1 mcg/ml, 4-day addition, after 7 days): 70%
viability at 1 µg/mL (read-out: Viable cell percentage, 1 mcg/ml, 4-day addition, after 10 days): 61%
viability at 1 µg/mL (read-out: Viable cell percentage, 1 mcg/ml, 4-day addition, after 20 days): 20%
viability at 1 µg/mL (read-out: Viable cell percentage, 1 mcg/ml, 4-day addition, after 30 days): 98%
viability at 1 µg/mL (read-out: Viable cell percentage, 1 mcg/ml, continuous addition, after 30 days): 98%
viability at 2.5 µg/mL (read-out: Viable cell percentage, 2.5 mcg/ml, 4-day addition, after 7 days): 80%
viability at 2.5 µg/mL (read-out: Viable cell percentage, 2.5 mcg/ml, 4-day addition, after 10 days): 92%
viability at 2.5 µg/mL (read-out: Viable cell percentage, 2.5 mcg/ml, 4-day addition, after 20 days): 87%
viability at 2.5 µg/mL (read-out: Viable cell percentage, 2.5 mcg/ml, 4-day addition, after 30 days): 83%
viability at 2.5 µg/mL (read-out: Viable cell percentage, 2.5 mcg/ml, continuous addition, after 30 days): 88%
viability at 5 µg/mL (read-out: Viable cell percentage, 5 mcg/ml, 4-day addition, after 7 days): 76%
viability at 5 µg/mL (read-out: Viable cell percentage, 5 mcg/ml, 4-day addition, after 10 days): 95%
viability at 5 µg/mL (read-out: Viable cell percentage, 5 mcg/ml, 4-day addition, after 20 days): 87%
viability at 5 µg/mL (read-out: Viable cell percentage, 5 mcg/ml, 4-day addition, after 30 days): 92%
viability at 5 µg/mL (read-out: Viable cell percentage, 5 mcg/ml, continuous addition, after 30 days): 75%
viability at 10 µg/mL (read-out: Viable cell percentage, 10 mcg/ml, 4-day addition, after 7 days): 68%
viability at 10 µg/mL (read-out: Viable cell percentage, 10 mcg/ml, 4-day addition, after 10 days): 94%
viability at 10 µg/mL (read-out: Viable cell percentage, 10 mcg/ml, 4-day addition, after 20 days): 85%
viability at 10 µg/mL (read-out: Viable cell percentage, 10 mcg/ml, 4-day addition, after 30 days): 92%
viability at 10 µg/mL (read-out: Viable cell percentage, 10 mcg/ml, continuous addition, after 30 days): 83%
